Counter-ions that a name gives are not always drawn.
Molecular target: T1, Nav1.7 (or SCN9A) channel (Homo sapiens, UniProt Q15858)
T1 construct: expressed in transfected cells
Assay: Nav1.7 (hSCN9A) electrophysiology assay, PatchXpress platform
Assay type: cell-based
Settings: estimated IC50 from single point electrophysiology data, HEK cells stably expressing hSCN9A, held at V1/2 of inactivation, read-out: Nav1.7 EIC50
Procedure: The ability of the compounds of formula (I) to block the Nav1.7 (or SCN9A) channel were measured using the assay described below.
Human Embryonic Kidney (HEK) cells were transfected with an hSCN9A construct using lipofectamine reagent (Invitrogen), using standard techniques. Cells stably expressing the hSCN9A constructs were identified by their resistance to G-418 (400 μg/ml). Clones were screened for expression using the whole-cell voltage-clamp technique.
HEK cells stably transfected with hSCN9A were maintained in DMEM medium supplemented with 10% heat-inactivated fetal bovine serum and 400 μg/ml G-418 in an incubator at 37° C. with a humidified atmosphere of 10% CO2. For HTS, cells were harvested from flasks by trypsinization and replated in an appropriate multi-well plate (typically 96 or 384 wells/plate) such that confluence would be achieved within 24 hours of plating. For electrophysiological studies, cells were removed from the culture flask by brief trypsinization and re-plated at low density onto glass cover slips. Cells were typically used for electrophysiological experiments within 24 to 72 hours after plating.
Cover slips containing HEK cells expressing hSCN9A were placed in a bath on the stage of an inverted microscope and perfused (approximately 1 ml/minutes) with extracellular solution of the following composition: 138 mM NaCl, 2 mM CaCl2, 5.4 mM KCl, 1 mM MgCl2, 10 mM glucose, and 10 mM HEPES, pH 7.4, with NaOH. […] The osmolarity of the extracellular and intracellular solutions was 300 mOsm/kg and 295 mOsm/kg, respectively. All recordings were made at room temperature (22-24° C.) using AXOPATCH 200B amplifiers and PCLAMP software (Axon Instruments, Burlingame, Calif.).
hSCN9A currents in HEK cells were measured using the whole-cell configuration of the patch-clamp technique (Hamill et al., 1981). Uncompensated series resistance was typically 2 to 5 mega ohms and >85% series resistance compensation was routinely achieved. […] Current records were acquired at 20 to 50 KHz and filtered at 5 to 10 KHz.
HEK cells stably transfected with hSCN9A were viewed under Hoffman contrast optics and placed in front of an array of flow pipes emitting either control or compound-containing extracellular solutions. All compounds were dissolved in dimethyl sulfoxide to make 10 mM stock solutions, which were then diluted into extracellular solution to attain the final concentrations desired. […] The voltage-dependence of inactivation was determined by applying a series of depolarizing prepulses (8 sec long in 10 mV increments) from a negative holding potential. The voltage was then immediately stepped to 0 mV to assess the magnitude of the sodium current. Currents elicited at 0 mV were plotted as a function of prepulse potential to allow estimation of the voltage at which 50% of the channels were inactivated (midpoint of inactivation or V1/2). Compounds were tested for their ability to inhibit hSCN9A sodium channels by activating the channel with a 20 msec voltage step to 0 mV following an 8 second conditioning prepulse to the empirically determined V1/2. Compound effect (% inhibition) was determined by difference in current amplitude before and after application of test compounds. […] Inhibition values <20% and >80% were excluded from the calculation.
Electrophysiological assays were conducted with PatchXpress 7000 hardware and associated software (Molecular Devices Corp). All assay buffers and solutions were identical to those used in conventional whole-cell voltage clamp experiments described above. hSCN9A cells were grown as above to 50%-80% confluency and harvested by trypsinization. Trypsinized cells were washed and resuspended in extracellular buffer at a concentration of 1×10^6 cells/ml. The onboard liquid handling facility of the PatchXpress was used for dispensing cells and application of test compounds.

T1 sequence (Q15858 whole entry): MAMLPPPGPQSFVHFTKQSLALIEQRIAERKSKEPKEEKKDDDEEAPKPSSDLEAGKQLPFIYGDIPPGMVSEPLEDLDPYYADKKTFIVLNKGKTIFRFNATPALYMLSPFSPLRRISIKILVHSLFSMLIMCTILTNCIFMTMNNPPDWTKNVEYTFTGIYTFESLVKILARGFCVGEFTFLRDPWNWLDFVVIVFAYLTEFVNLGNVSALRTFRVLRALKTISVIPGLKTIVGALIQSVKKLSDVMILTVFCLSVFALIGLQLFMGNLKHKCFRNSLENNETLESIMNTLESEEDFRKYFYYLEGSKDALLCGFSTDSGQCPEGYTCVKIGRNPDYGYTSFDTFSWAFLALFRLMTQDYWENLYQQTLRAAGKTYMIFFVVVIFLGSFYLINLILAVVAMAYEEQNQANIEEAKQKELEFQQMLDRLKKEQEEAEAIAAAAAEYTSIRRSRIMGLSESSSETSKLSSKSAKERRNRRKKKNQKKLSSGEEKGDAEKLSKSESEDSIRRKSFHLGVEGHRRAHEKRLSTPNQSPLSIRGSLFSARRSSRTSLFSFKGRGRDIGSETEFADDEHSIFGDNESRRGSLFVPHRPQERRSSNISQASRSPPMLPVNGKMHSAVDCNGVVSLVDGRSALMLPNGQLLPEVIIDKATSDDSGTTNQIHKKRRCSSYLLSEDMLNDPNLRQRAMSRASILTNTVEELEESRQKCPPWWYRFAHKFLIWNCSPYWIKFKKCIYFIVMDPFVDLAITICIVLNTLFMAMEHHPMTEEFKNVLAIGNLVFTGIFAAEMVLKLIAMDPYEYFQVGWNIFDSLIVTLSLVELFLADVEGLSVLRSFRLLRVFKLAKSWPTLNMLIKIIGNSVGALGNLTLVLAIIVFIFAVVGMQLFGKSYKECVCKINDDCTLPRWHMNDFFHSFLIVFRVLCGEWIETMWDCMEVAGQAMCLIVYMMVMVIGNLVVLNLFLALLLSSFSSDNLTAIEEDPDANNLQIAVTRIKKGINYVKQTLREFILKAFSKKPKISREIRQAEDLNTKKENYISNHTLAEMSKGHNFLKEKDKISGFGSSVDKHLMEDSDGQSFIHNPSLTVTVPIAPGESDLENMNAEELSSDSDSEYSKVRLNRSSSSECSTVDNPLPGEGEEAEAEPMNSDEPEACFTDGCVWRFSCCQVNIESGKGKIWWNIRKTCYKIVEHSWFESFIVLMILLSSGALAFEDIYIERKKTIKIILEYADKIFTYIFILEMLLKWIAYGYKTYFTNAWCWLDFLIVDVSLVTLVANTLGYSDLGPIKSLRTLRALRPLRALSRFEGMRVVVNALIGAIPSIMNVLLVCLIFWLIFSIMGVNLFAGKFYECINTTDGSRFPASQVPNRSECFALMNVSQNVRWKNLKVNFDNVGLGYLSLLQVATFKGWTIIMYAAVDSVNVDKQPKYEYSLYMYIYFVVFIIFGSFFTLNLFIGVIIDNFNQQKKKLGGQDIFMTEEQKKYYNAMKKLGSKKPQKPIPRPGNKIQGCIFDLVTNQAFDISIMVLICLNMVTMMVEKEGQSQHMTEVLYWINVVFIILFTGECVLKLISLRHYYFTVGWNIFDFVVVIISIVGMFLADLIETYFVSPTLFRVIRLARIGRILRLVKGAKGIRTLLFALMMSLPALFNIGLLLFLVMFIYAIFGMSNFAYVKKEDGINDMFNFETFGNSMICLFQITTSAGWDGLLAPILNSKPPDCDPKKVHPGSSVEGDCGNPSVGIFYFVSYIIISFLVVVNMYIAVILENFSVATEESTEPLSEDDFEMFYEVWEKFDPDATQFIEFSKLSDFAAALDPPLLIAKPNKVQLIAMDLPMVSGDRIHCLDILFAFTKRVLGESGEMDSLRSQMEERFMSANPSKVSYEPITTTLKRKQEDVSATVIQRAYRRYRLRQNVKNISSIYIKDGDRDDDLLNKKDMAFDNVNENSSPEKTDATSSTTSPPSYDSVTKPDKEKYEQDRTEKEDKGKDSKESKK

Structure (SMILES)	IC50 [µM]
CS(=O)(=O)NC(=O)c1cc(Cl)c(COc2ccc(Cl)c(Cl)c2)cc1F [Example 1, 5-Chloro-4-[(3,4-dichlorophenoxy)methyl]-2-fluoro-N-(methylsulfonyl)benzamide]	0.0095
CS(=O)(=O)NC(=O)c1cc(F)c(COc2ccc(C(F)(F)F)c(Cl)c2)cc1F [Example 2, 4-{[3-Chloro-4-(trifluoromethyl)phenoxy]methyl}-2,5-difluoro-N-(methylsulfonyl)benzamide]	0.064
CS(=O)(=O)NC(=O)c1ccc(OCc2ccc(Cl)c(Cl)c2)cc1 [Example 3]	0.29
Cn1nc(C(F)(F)F)cc1-c1ccc(OCc2ccc(C(=O)NS(C)(=O)=O)cc2)cc1 [Example 4, N-(Methylsulfonyl)-4-({4-[1-methyl-3-(trifluoromethyl)-1H-pyrazol-5-yl]phenoxy}methyl)benzamide diethylamine salt]	1.2
CS(=O)(=O)NC(=O)c1ccc(OCc2cccc3ccccc23)c(C#N)c1 [Example 5, 3-Cyano-N-(methylsulfonyl)-4-(1-naphthylmethoxy)benzamide]	1.7
CS(=O)(=O)NC(=O)c1ccc(OCc2ccccc2OC(F)(F)F)c(Cl)c1 [Example 6, 3-Chloro-N-(methylsulfonyl)-4-{[2-(trifluoromethoxy)benzyl]oxy}benzamide]	1.3
COc1cccc(OCc2ccc(C(=O)NS(C)(=O)=O)cc2)c1 [Example 8, 4-[(3-Methoxyphenoxy)methyl]-Nethylsulfonyl)benzamide diethylamine salt]	6.9
CS(=O)(=O)NC(=O)c1cc(F)c(OCc2ccc(Cl)c(Cl)c2)cc1F [Example 9, 4-[(3,4-Dichlorobenzyl)oxy]-2,5-difluoro-N-(methylsulfonyl)benzamide]	0.67
CS(=O)(=O)NC(=O)c1cc(F)c(OCc2ccc(C(F)(F)F)c(Cl)c2)cc1F [Example 10, 4-(3-Chloro-4-(trifluoromethyl)benzyloxy)-2,5-difluoro-N-(methylsulfonyl)benzamide]	1.5
COc1cc(OCc2ccc(Cl)c(Cl)c2)ccc1C(=O)NS(C)(=O)=O [Example 12, 4-[(3,4-Dichlorobenzyl)oxy]-2-methoxy-N-(methylsulfonyl)benzamide]	12
COc1ccccc1OCc1cc(F)c(C(=O)NS(C)(=O)=O)cc1F [Example 14, 2,5-Difluoro-4-((2-methoxyphenoxy)methyl)-N-(methylsulfonyl)benzamide]	8.1
COc1cc(Cl)ccc1OCc1cc(F)c(C(=O)NS(C)(=O)=O)cc1F [Example 15, 4-((4-Chloro-2-methoxyphenoxy)methyl)-2,5-difluoro-N-(methylsulfonyl)benzamide Diethylamine salt]	1.7
CS(=O)(=O)NC(=O)c1ccc(COc2cccc(Cl)c2)cc1 [Example 16, 4-((3-Chlorophenoxy)methyl)-N-(methylsulfonyl)benzamide Diethylamine salt]	0.76
CS(=O)(=O)NC(=O)c1ccc(COc2ccc(C#N)cc2)cc1 [Example 17, 4-((4-Cyanophenoxy)methyl)-N-(methylsulfonyl)benzamide]	8.4
CS(=O)(=O)NC(=O)c1ccc(COc2ccc(Cl)cc2)cc1 [Example 18, 4-((4-Chlorophenoxy)methyl)-N-(methylsulfonyl)benzamide Diethylamine salt]	0.93
COc1cc(C(=O)NS(C)(=O)=O)ccc1COc1ccc(Cl)c(Cl)c1 [Example 19, 4-((3,4-Dichlorophenoxy)methyl)-3-methoxy-N-(methylsulfonyl)benzamide]	0.058
CS(=O)(=O)NC(=O)c1ccc(OCc2ccccc2)cc1 [Example 20, 4-(Benzyloxy)-N-(methylsulfonyl)benzamide Diethylamine salt]	2.4

Structure (SMILES)	IC50 [µM]
CS(=O)(=O)NC(=O)c1ccc(OCc2cccc(Br)c2)cc1 [Example 21, 4-(3-Bromobenzyloxy)-N-(methylsulfonyl)benzamide]	0.71
Cc1nccn1-c1ccc(COc2ccc(C(=O)NS(C)(=O)=O)cc2)cc1 [Example 22, 4-(4-(2-methyl-1H-imidazol-1-yl)benzyloxy)-N-(methylsulfonyl)benzamide]	> 3
CCC(C)S(=O)(=O)NC(=O)c1cc(F)c(COc2ccc(Cl)c(Cl)c2)cc1F (stereo not shown) [Example 23, N-(sec-Butylsulfonyl)-4-((3,4-dichlorophenoxy)methyl)-2,5-difluorobenzamide]	0.38
CS(=O)(=O)NC(=O)c1ccc(COc2ccc(Cl)cc2Cl)cc1 [Example 24, 4-((2,4-Dichlorophenoxy)methyl)-N-(methylsulfonyl)benzamide Diethylamine salt]	0.78
CCc1ccc(OCc2ccc(C(=O)NS(C)(=O)=O)cc2)cc1 [Example 25, 4-((4-Ethylphenoxy)methyl)-N-(methylsulfonyl)benzamide Diethylamine salt]	0.72
CS(=O)(=O)NC(=O)c1ccc(COc2ccc(C(F)(F)F)cc2-c2ccnnc2)cc1 [Example 26, N-(methylsulfonyl)-4-{[2-pyridazin-4-yl-4-(trifluoromethyl)phenoxy]methyl}benzamide]	0.078
CS(=O)(=O)NC(=O)c1ccc(COc2ccc(Cl)c(C(F)(F)F)c2)cc1 [Example 27, 4-{[4-Chloro-3-(trifluoromethyl)phenoxy]methyl}-N-(methylsulfonyl)benzamide]	0.38
CS(=O)(=O)NC(=O)c1ccc(COc2ccc(Cl)c(Cl)c2)cc1 [Example 28, 4-[(3,4-Dichlorophenoxy)methyl]-N-(methylsulfonyl)benzamide]	0.058
CS(=O)(=O)NC(=O)c1ccc(COc2ccc(Cl)c(Cl)c2)c(Cl)c1 [Example 29, 3-Chloro-4-((3,4-dichlorophenoxy)methyl)-N-(methylsulfonyl)benzamide Diethylamine salt]	0.086
COc1cc(COc2ccc(Cl)c(Cl)c2)ccc1C(=O)NS(C)(=O)=O [Example 30, 4-[(3,4-Dichlorophenoxy)methyl]-2-methoxy-N-(methylsulfonyl)benzamide]	1.9
COc1ccccc1OCc1ccc(C(=O)NS(C)(=O)=O)cc1 [Example 34, 4-[(2-Methoxyphenoxy)methyl]-N-(methylsulfonyl)benzamide]	8.5
CS(=O)(=O)NC(=O)c1ccc(COc2cccc(C3CCNCC3)c2)cc1 [Example 35, N-(Methylsulfonyl)-4-[(3-piperidin-4-ylphenoxy)methyl]benzamide]	> 3
CS(=O)(=O)NC(=O)c1ccc(COc2ccc(C3CCNCC3)cc2)cc1 [Example 36, N-(methylsulfonyl)-4-[(4-piperidin-4-ylphenoxy)methyl]benzamide diethylamine salt]	> 3
Cn1nccc1-c1ccc(OCc2ccc(C(=O)NS(C)(=O)=O)cc2)cc1 [Example 37, 4-{[4-(1-Methyl-1H-pyrazol-5-yl)phenoxy]methyl}-N-(methylsulfonyl)benzamide diethylamine salt]	> 3
Cn1nccc1-c1cc(Cl)ccc1OCc1ccc(C(=O)NS(C)(=O)=O)cc1 [Example 38, 4-{[4-Chloro-2-(1-methyl-1H-pyrazol-5-yl)phenoxy]methyl}-N-(methylsulfonyl)benzamide diethylamine salt]	> 3
CCc1ccc(OCc2ccc(C(=O)NS(C)(=O)=O)c(F)c2)cc1 [Example 40, 4-[(4-Ethylphenoxy)methyl]-2-fluoro-N-(methylsulfonyl)benzamide diethylamine salt]	0.56
CCc1ccc(OCc2ccc(C(=O)NS(C)(=O)=O)c(OC)c2)cc1 [Example 41, 4-[(4-Ethylphenoxy)methyl]-2-methoxy-N-(methylsulfonyl)benzamide diethylamine salt]	3.7
